Experiment: Conformational equilibrium of cyclic and open chain forms in aqueous solution
Assay type: physicochemical
Settings: at equilibrium at pH 7.0
From the text: The open, active, inhibitory chain species is favored at low pH while the cyclized structure is favored at neutral pH. The reaction is fully reversible: the open chain becomes predominant at low pH. The open chain to cyclic species reaction involves a trans to cis isomerization of the proline and the formation of a new N—B bond. […] Cyclization liberates one equivalent of H+ thereby explaining the requirement for base in the cyclization reaction and acid in the opening reaction. […] G. Gutheil and W. W. Bachovchin, Separation of L-Pro-DL-boroPro into Its Component Diastereomers and Kinetic Analysis of Their Inhibition of Dipeptidyl Peptidase IV. A New Method for the Analysis of Slow, Tight-Binding Inhibition, Biochemistry 32, 8723-8731 (1993)).

Compound	fraction existing as the open chain, inhibitory species
CC(C)C(N)C(=O)N1CCCC1B(O)O (centres unmarked) [Val-boroPro]	less than 0.1%
O=C(C1CCCN1)N1CCCC1B(O)O (centres unmarked) [Pro-boroPro]	less than 1%
